Test results as given in paper PMC12648092 (Acta Pharmaceutica Sinica. B, 2025).

Target: AChE (Homo sapiens, UniProt P22303)
Test: ROCMCBs

Chain of AChE (P22303 32-617 isoform P22303-2 limits assumed): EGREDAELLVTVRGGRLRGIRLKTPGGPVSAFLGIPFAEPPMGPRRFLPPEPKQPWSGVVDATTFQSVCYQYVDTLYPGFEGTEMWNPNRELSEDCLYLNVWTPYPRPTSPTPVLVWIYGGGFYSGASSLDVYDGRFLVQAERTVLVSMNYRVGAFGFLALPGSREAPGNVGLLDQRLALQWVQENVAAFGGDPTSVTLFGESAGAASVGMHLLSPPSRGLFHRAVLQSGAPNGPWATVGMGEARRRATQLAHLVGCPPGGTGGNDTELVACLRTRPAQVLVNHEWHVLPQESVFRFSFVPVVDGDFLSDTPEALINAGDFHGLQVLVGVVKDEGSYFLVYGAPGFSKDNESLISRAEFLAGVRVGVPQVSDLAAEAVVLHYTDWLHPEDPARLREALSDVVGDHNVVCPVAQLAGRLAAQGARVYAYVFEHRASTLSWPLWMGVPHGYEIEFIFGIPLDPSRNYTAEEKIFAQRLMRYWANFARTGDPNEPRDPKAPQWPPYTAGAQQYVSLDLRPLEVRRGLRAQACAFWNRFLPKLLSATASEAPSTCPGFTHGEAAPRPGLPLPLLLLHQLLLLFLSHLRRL

| Structure (SMILES) | IC50 [µM] |
| --- | --- |
| O=C(O)[C@H]1O[C@@H](Oc2cc3oc(-c4ccccc4)cc(=O)c3c(O)c2O)[C@H](O)[C@@H](O)[C@@H]1O [baicalin] | 12.2 |
| COC(=O)C1=CO[C@@H](O[C@@H]2O[C@H](CO)[C@@H](O)[C@H](O)[C@H]2O)[C@@H]2C(CO)=CC[C@H]12 [geniposide] | 8.3 |
| OCc1ccc(O[C@@H]2O[C@H](CO)[C@@H](O)[C@H](O)[C@H]2O)cc1 [gastrodin] | 3.2 |
| CC[C@H]1CN2CC[C@]3(C(=O)Nc4ccccc43)[C@@H]2C[C@@H]1/C(=C\OC)C(=O)OC [rhynchophylline] | 66.3 |
